Experimental findings from patent publication US20230094952A1, “Method for Culturing Hematopoietic Stem Cells” (Sumitomo Pharma Co., Ltd., priority 2019, published 2023) are described below.

The experiment has as its system mouse long-term hematopoietic stem cells. Briefly: Reproducibility and concentration dependence test: 1-week culture of sorted Hoxb5-tri-mCherry mouse long-term hematopoietic stem cells, flow cytometry. The following applies: Table 4, day 7 of culture, n=2. It counts as cell-based. The procedure: Mice with insertion of a nucleic acid sequence containing three copies of a gene encoding the fluorescent protein mCherry to the C terminus of the mouse endogenous HoxB5 gene (Hoxb5-tri-mCherry) were used (triple-mCherry Hoxb5 knock-in mice; Non Patent Literature 1). The mice were housed under environmental conditions such that the room temperature and the humidity were 20 to 26° C. and 40 to 70%, respectively, under light for 12 hours and under dark for 12 hours (illumination: 8:00 a.m. to 8:00 p.m.).
Bone marrow cells were collected from the tibia, femur, humerus, and pelvis in each side of each of the mice, and gathered in a mortar. A buffer obtained by adding thermally deactivated bovine serum (manufactured by Gibco) at a final concentration of 2% and EDTA at a final concentration of 2 mM to Ca^2+-free and Mg^2+-free PBS was added, and the resultant was broken with a pestle to obtain a cell population including hematopoietic stem cells.
First, the thus-obtained cell population including hematopoietic stem cells was passed through strainers (meshes) of 100 μm, 70 μm, and 40 μm. The cell population was stained with an APC-binding anti-c-Kit (2B8) and fractionated with anti-APC magnetic beads and an LS column (both manufactured by Miltenyi Biotec) to obtain a cell population enriched with hematopoietic stem cells and progenitor cells.
Subsequently, cells being c-Kit-positive were stained with antibodies for the following cell surface markers.
Staining with the antibodies was performed at 4° C., and the cells were incubated for 30 minutes. For staining with the CD34 antibody, the cells were incubated for 90 minutes. Dead cell staining was performed with SYTOX Red Dead Cell Stain (manufactured by Life Technologies) in accordance with a method recommended by the manufacturer.
Flow cytometry analysis and cell classification (cell sorting) were performed with a FACS Aria II cell sorter (manufactured by BD Biosciences), wherein Lineage-negative, c-Kit-positive, Sca-1-positive, Flk2-negative, CD34-negative or weakly CD34-positive, CD150-positive, and mCherry-positive fractions were regarded as long-term hematopoietic stem cells, and analysis was performed with the software FlowJo (manufactured by Tree Star, Inc.).
The cells after classification were seeded in a 96-well plate. A cell culture medium was prepared by adding Stem Cell Factor (SCF, manufactured by PeproTech, Inc.) and Thrombopoietin (TPO, manufactured by PeproTech, Inc.) to StemSpan SFEM culture medium (manufactured by […] Technologies Inc.) and added in advance to a cell culture 96-well plate (manufactured by BD Biosciences) at 100 μL/well, and the cells sorted with the FACS Aria II cell sorter (BD Biosciences) were then seeded at 10 cells/well.
[…] Thereafter, the cells were cultured in a CO2 incubator under conditions of 37° C. and 5% CO2 for 1 week.
After culture, the cells were stained with the antibodies for the surface markers c-Kit and Sca-1, Ter-119, B220, CD3, CD4, CD8a, Gr-1, and CD11b, and the ratio and post-growth cell count of a KLS fraction (c-Kit^+, Lin^−, Sca-1^+) or an mCherry-positive fraction given with use of a FACS Aria II cell sorter were analyzed by using FlowJo (BD Biosciences). The mCherry-positive fraction is a cell fraction expressing the Hoxb5 gene, and the KLS fraction is a cell fraction being c-Kit-positive, Lin-negative, and Sca-1-positive, and includes hematopoietic stem cells and multipotent progenitor cells as main components. […]

As to `C[C@H]1[C@@H](OCc2ccccc2)O[C@@H]2O[C@@]3(C)CC[C@H]4[C@H](C)CC[C@@H]1[C@@]24OO3` [Example 1-24, (3R,5aS,6R,8aS,9R,10S,12R,12aR)-10-(benzyloxy)-3,6,9-trimethyldecahydro-12H-3,12-epoxypyrano[4,3-j][1,2]benzodioxepine], the KLS-positive rate runs as follows: (compound 0.1 μM) 73.6%; (compound 0.3 μM) 0.0%; (compound 1 μM) 0.0%; (compound 3 μM) 0.0%; (compound 10 μM) 0.0%. In addition, the Viable cell count came out at 18.0 cell (compound 0.1 μM); 0.5 cell (compound 0.3 μM); 0.5 cell (compound 1 μM); 0.0 cell (compound 3 μM); 0.5 cell (compound 10 μM). For the same compound, the mCherry-positive rate by setting is: (compound 0.1 μM) 94.1%; (compound 0.3 μM) 50.0%; (compound 1 μM) 50.0%; (compound 3 μM) 0.0%; (compound 10 μM) 0.0%.
As to `C[C@H]1[C@@H](C)O[C@@H]2O[C@@]3(C)CC[C@H]4[C@H](C)CC[C@@H]1[C@@]24OO3` [Example 1-6, (3R,5aS,6R,8aS,9R,10R,12R,12aR)-3,6,9,10-Tetramethyldecahydro-12H-3,12-epoxypyrano[4,3-j][1,2]benzodioxepine], the KLS-positive rate is, setting by setting: (compound 0.1 μM) 34.8%; (compound 0.3 μM) 20.9%; (compound 1 μM) 19.8%; (compound 3 μM) 17.6%; (compound 10 μM) 47.8%. Further, the Viable cell count runs as follows: (compound 0.1 μM) 147.0 cell; (compound 0.3 μM) 190.0 cell; (compound 1 μM) 183.5 cell; (compound 3 μM) 215.5 cell; (compound 10 μM) 37.5 cell. Further, the mCherry-positive rate worked out at 2.0% (compound 0.1 μM); 15.6% (compound 0.3 μM); 24.4% (compound 1 μM); 80.8% (compound 3 μM); 98.4% (compound 10 μM).
With `CC(=O)N[C@@H]1O[C@@H]2O[C@@]3(C)CC[C@H]4[C@H](C)CC[C@@H]([C@H]1C)[C@@]24OO3` [Example 1-10, N-[(3R,5aS,6R,8aS,9R,10R,12R,12aR)-3,6,9-Trimethyldecahydro-12H-3,12-epoxypyrano[4,3-j][1,2]benzodioxepin-10-yl]acetamide], the KLS-positive rate (compound 0.1 μM) was 19.7%; the KLS-positive rate (compound 0.3 μM) was determined as 23.1%; the KLS-positive rate (compound 1 μM) was 32.9%; the KLS-positive rate (compound 3 μM) was 33.1%; the KLS-positive rate (compound 10 μM) is 53.1%. For the same compound, the Viable cell count stood at 717.5 cell (compound 0.1 μM); 387.0 cell (compound 0.3 μM); 325.5 cell (compound 1 μM); 579.0 cell (compound 3 μM); 46.5 cell (compound 10 μM). The compound further returned a mCherry-positive rate (compound 0.1 μM) of 6.5%; a mCherry-positive rate (compound 0.3 μM) of 16.5%; a mCherry-positive rate (compound 1 μM) of 9.1%; a mCherry-positive rate (compound 3 μM) of 38.5%; a mCherry-positive rate (compound 10 μM) of 99.3%.
`C[C@H]1[C@@H](Oc2ccccc2)O[C@@H]2O[C@@]3(C)CC[C@H]4[C@H](C)CC[C@@H]1[C@@]24OO3` [Example 1-21, (3R,5aS,6R,8aS,9R,10S,12R,12aR)-3,6,9-trimethyl-10-phenoxydecahydro-12H-3,12-epoxypyrano[4,3-j][1,2]benzodioxepine] showed a KLS-positive rate (compound 0.1 μM) of 0.0%; a KLS-positive rate (compound 0.3 μM) of 0.0%; a KLS-positive rate (compound 1 μM) of 0.0%; a KLS-positive rate (compound 3 μM) of 0.0%; a KLS-positive rate (compound 10 μM) of 0.0%. Further, the Viable cell count by setting is: (compound 0.1 μM) 0.0 cell; (compound 0.3 μM) 2.0 cell; (compound 1 μM) 0.5 cell; (compound 3 μM) 0.5 cell; (compound 10 μM) 0.5 cell. Further, the mCherry-positive rate (compound 0.1 μM) is reported as 0.0%; the mCherry-positive rate (compound 0.3 μM) is 50.0%; the mCherry-positive rate (compound 1 μM) turned out to be 0.0%; the mCherry-positive rate (compound 3 μM) is recorded as 50.0%; the mCherry-positive rate (compound 10 μM) was found to be 50.0%.
Consider `C[C@H]1[C@@H](OCC(F)(F)F)O[C@@H]2O[C@@]3(C)CC[C@H]4[C@H](C)CC[C@@H]1[C@@]24OO3` [Example 1-22, (3R,5aS,6R,8aS,9R,10S,12R,12aR)-3,6,9-Trimethyl-10-(2,2,2-trifluoroethoxy)decahydro-12H-3,12-epoxypyrano[4,3-j][1,2]benzodioxepine], for which the KLS-positive rate is 26.7% (compound 0.1 μM); 87.0% (compound 0.3 μM); 0.0% (compound 1 μM); 50.0% (compound 3 μM); 0.0% (compound 10 μM). In addition, the Viable cell count was determined as 216.0 cell (compound 0.1 μM); 12.5 cell (compound 0.3 μM); 0.5 cell (compound 1 μM); 0.5 cell (compound 3 μM); 0.5 cell (compound 10 μM). Further, the mCherry-positive rate reads like this: (compound 0.1 μM) 90.9%; (compound 0.3 μM) 100.0%; (compound 1 μM) 0.0%; (compound 3 μM) 50.0%; (compound 10 μM) 0.0%.
For `C[C@H]1[C@@H](CN)O[C@@H]2O[C@@]3(C)CC[C@H]4[C@H](C)CC[C@@H]1[C@@]24OO3` [Example 1-17, 1-[(3R,5aS,6R,8aS,9R,10S,12R,12aR)-3,6,9-Trimethyldecahydro-12H-3,12-epoxypyrano[4,3-j][1,2]benzodioxepin-10-yl]methanamine], the KLS-positive rate is, setting by setting: (compound 0.1 μM) 15.9%; (compound 0.3 μM) 16.1%; (compound 1 μM) 19.4%; (compound 3 μM) 24.0%; (compound 10 μM) 51.8%. The same compound registered a Viable cell count (compound 0.1 μM) of 947.0 cell; a Viable cell count (compound 0.3 μM) of 902.0 cell; a Viable cell count (compound 1 μM) of 641.5 cell; a Viable cell count (compound 3 μM) of 315.0 cell; a Viable cell count (compound 10 μM) of 80.0 cell. The mCherry-positive rate by setting is: (compound 0.1 μM) 4.9%; (compound 0.3 μM) 2.5%; (compound 1 μM) 16.1%; (compound 3 μM) 70.1%; (compound 10 μM) 100.0%.
For the compound `C[C@H]1[C@H](C(=O)O)O[C@@H]2O[C@@]3(C)CC[C@H]4[C@H](C)CC[C@@H]1[C@@]24OO3` [Example 1-8, (3R,5aS,6R,8aS,9R,10R,12R,12aR)-3,6,9-Trimethyldecahydro-12H-3,12-epoxypyrano[4,3-j][1,2]benzodioxepine-10-carboxylic acid], the KLS-positive rate is 17.3% (compound 0.1 μM); 18.2% (compound 0.3 μM); 28.7% (compound 1 μM); 37.3% (compound 3 μM); 20.6% (compound 10 μM). Besides, the Viable cell count is, setting by setting: (compound 0.1 μM) 396.5 cell; (compound 0.3 μM) 379.5 cell; (compound 1 μM) 248.0 cell; (compound 3 μM) 204.5 cell; (compound 10 μM) 286.5 cell. The mCherry-positive rate runs as follows: (compound 0.1 μM) 3.0%; (compound 0.3 μM) 7.7%; (compound 1 μM) 12.0%; (compound 3 μM) 12.9%; (compound 10 μM) 29.0%.
